Source: ChEMBL document CHEMBL1130590, “Aryl sulfonamides as selective PDE4 inhibitors” (Bioorg Med Chem Lett, 1998)

Columns and labels:
Phosphodiesterase 4 [1] = target: T1, Phosphodiesterase 4 (Homo sapiens, UniProt P27815+Q08499+Q07343+Q08493); test: In vitro binding activity towards catalytic site of phosphodiesterase 4; type: protein assay
Phosphodiesterase 4 [2] = target: T1, Phosphodiesterase 4; test: Binding activity towards Rolipram binding site of phosphodiesterase 4 at concentration 10 uM; type: protein assay
Phosphodiesterase 4 [3] = target: T1, Phosphodiesterase 4; test: Ratio of binding activity at catalytic site to Rolipram binding site of PDE4; type: protein assay
Phosphodiesterase 4 [4] = target: T1, Phosphodiesterase 4; test: Binding activity towards Rolipram binding site of phosphodiesterase 4; type: protein assay
Phosphodiesterase 4 [5] = target: T1, Phosphodiesterase 4; test: Inhibition of phosphodiesterase 4 at 20 uM; type: protein assay
[6] = target: cGMP-specific 3',5'-cyclic phosphodiesterase (Homo sapiens) (UniProt O76074); test: Inhibition of phosphodiesterase 5 at 200 uM
[7] = target: Phosphodiesterase 3 (Homo sapiens) (UniProt Q14432+Q13370); test: Inhibition of phosphodiesterase 3 at 200 uM; type: protein assay
Phosphodiesterase 1 [8] = target: T2, Phosphodiesterase 1 (Homo sapiens, UniProt P54750+Q01064+Q14123); test: Inhibition of phosphodiesterase 1 at 200 uM; type: protein assay
[9] = target: cGMP-dependent 3',5'-cyclic phosphodiesterase (Homo sapiens) (UniProt O00408); test: Inhibition of phosphodiesterase 2 at 200 uM
Phosphodiesterase 1 [10] = target: T2, Phosphodiesterase 1; test: Inhibition of phosphodiesterase 1 at 20 uM; type: protein assay
[11] = target: cGMP-dependent 3',5'-cyclic phosphodiesterase (Homo sapiens) (UniProt O00408); conditions: 200 uM
Phosphodiesterase 4 [12] = target: T1, Phosphodiesterase 4; test: Inhibition of Rolipram binding to phosphodiesterase 4 at 20 uM; type: protein assay
Phosphodiesterase 4 [13] = target: T1, Phosphodiesterase 4; test: Inhibition of phosphodiesterase 4; type: protein assay
Phosphodiesterase 4 [14] = target: T1, Phosphodiesterase 4; test: Inhibition of Rolipram binding to phosphodiesterase 4 at 1 uM; type: protein assay
Phosphodiesterase 4 [15] = target: T1, Phosphodiesterase 4; test: Inhibition of phosphodiesterase 4 at 200 uM; type: protein assay
Phosphodiesterase 4 [16] = target: T1, Phosphodiesterase 4; test: Inhibition of Rolipram binding to phosphodiesterase 4 at 100 uM; type: protein assay
Phosphodiesterase 4 [17] = target: T1, Phosphodiesterase 4; test: Inhibition of Rolipram binding to phosphodiesterase 4; type: protein assay; conditions: concentration not given here

Chain of cGMP-dependent 3',5'-cyclic phosphodiesterase (Homo sapiens) (O00408 whole entry): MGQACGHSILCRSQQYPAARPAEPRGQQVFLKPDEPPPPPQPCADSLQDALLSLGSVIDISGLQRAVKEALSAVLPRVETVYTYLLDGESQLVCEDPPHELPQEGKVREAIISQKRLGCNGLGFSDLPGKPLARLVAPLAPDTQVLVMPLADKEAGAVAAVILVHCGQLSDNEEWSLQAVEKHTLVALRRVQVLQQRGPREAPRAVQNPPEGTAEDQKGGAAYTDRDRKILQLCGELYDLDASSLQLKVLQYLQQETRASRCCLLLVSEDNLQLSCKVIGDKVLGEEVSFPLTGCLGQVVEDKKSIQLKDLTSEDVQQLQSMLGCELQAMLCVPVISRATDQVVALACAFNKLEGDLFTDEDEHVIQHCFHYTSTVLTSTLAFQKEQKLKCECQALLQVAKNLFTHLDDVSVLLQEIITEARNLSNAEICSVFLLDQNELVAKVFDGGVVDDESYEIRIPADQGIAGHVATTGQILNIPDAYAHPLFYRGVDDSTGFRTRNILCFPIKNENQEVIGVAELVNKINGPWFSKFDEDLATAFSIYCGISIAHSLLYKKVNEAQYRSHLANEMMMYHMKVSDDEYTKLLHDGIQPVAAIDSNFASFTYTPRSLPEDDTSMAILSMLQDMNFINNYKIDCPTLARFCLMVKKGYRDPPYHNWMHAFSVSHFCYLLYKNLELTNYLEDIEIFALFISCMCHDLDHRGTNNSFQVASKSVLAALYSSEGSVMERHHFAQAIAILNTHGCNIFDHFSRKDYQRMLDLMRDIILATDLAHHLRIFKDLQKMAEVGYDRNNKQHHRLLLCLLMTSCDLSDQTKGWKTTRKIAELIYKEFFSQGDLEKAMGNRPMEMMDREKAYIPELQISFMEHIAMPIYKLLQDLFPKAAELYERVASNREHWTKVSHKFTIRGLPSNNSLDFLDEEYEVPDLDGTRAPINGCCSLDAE

SMILES	IC50 (Phosphodiesterase 4 [1]) [µM]	inhibition (Phosphodiesterase 4 [2]) [%]	Ratio (Phosphodiesterase 4 [3])	IC50 (Phosphodiesterase 4 [4]) [µM]	also measured
COc1ccc(S(=O)(=O)N(CC(C)=O)Cc2ccco2)cc1OC	24		0.69	35	
COc1ccc(S(=O)(=O)N(CCC#N)C2CCCc3ccccc32)cc1OC (stereo unspecified)	6.4	30	< 0.6		
COc1ccc(S(=O)(=O)N(Cc2cccnc2)S(=O)(=O)CCNS(=O)(=O)c2ccccc2)cc1OC	3		0.13	24	
COc1ccc(C2CNC(=O)C2)cc1OC1CCCC1 (stereo unspecified) [ROLIPRAM]					inhibition [7]: 27%; IC50 (Phosphodiesterase 1 [10]): > 200 µM; inhibition [11]: 28%
COc1ccc(S(=O)(=O)n2ccc3ccccc3c2=O)cc1OC					IC50 (Phosphodiesterase 4 [12]): 4 µM; IC50 (Phosphodiesterase 4 [13]): 0.5 µM
CCCN(Cc1ccc(C(=O)NC)cc1)S(=O)(=O)c1ccc(OC)c(OC)c1	1.9		0.44	4.3	
COc1ccc(S(=O)(=O)NCc2cccnc2)cc1OC					inhibition (Phosphodiesterase 4 [15]): 39%; inhibition (Phosphodiesterase 4 [16]): 41%
COc1ccc(S(=O)(=O)n2c(-c3ccccc3)cc3ccccc3c2=O)cc1OC		31			IC50 (Phosphodiesterase 4 [13]): 0.6 µM
COc1ccc(C(=O)N2CCCc3ccccc32)cc1OC	20	15	< 1		inhibition [6]: 12%; inhibition [7]: 31%; inhibition (Phosphodiesterase 1 [8]): 14%; inhibition [9]: 21%
COc1ccc(S(=O)(=O)NCCC#N)cc1OC				50	IC50 (Phosphodiesterase 4 [13]): 17.6 µM
COc1ccc(S(=O)(=O)N(Cc2cccnc2)C2CCc3ccccc32)cc1OC (stereo unspecified)	9	20	< 0.9		
COc1ccc(S(=O)(=O)N(CCCC#N)Cc2ccco2)cc1OC	9	37	< 1		
COc1ccc(S(=O)(=O)N(CCC#N)C2CCc3ccccc32)cc1OC (stereo unspecified)	4.1	26	< 0.4		
COc1ccc(S(=O)(=O)N(Cc2ccccn2)C2CCc3ccccc32)cc1OC (stereo unspecified)	5.3	12	< 0.5		
COc1ccc(S(=O)(=O)NC2CCc3cc(Cl)ccc32)cc1OC (stereo unspecified)	5.2	12	< 0.5		
COc1ccc(S(=O)(=O)N(Cc2ccccc2)Cc2cccnc2)cc1OC	5		< 1		inhibition (Phosphodiesterase 4 [17]): 8%
COc1ccc(S(=O)(=O)n2c(-c3ccccc3)cc3ncccc3c2=O)cc1OC		20			IC50 (Phosphodiesterase 4 [13]): 1.5 µM
CCCN(Cc1ccco1)S(=O)(=O)c1ccc(OC)c(OC)c1	1.5		0.1	15	
COc1ccc2c(c1)C(NS(=O)(=O)c1ccc(OC)c(OC)c1)CC2 (stereo unspecified)	2.5	2	< 0.25		

Continued, in another order:

IC50 (Phosphodiesterase 4 [1]) [µM]	inhibition (Phosphodiesterase 4 [2]) [%]	Ratio (Phosphodiesterase 4 [3])	IC50 (Phosphodiesterase 4 [4]) [µM]	SMILES	also measured
6	12	< 0.6		COc1ccc(S(=O)(=O)NC2CCc3ccccc32)cc1OC (stereo unspecified)	
		> 1	10	COc1ccc(S(=O)(=O)N(CCC#N)Cc2ccco2)cc1OC1CCCC1	inhibition (Phosphodiesterase 4 [5]): 32%
11		3.7	3	COc1ccc(C(=O)NC2CCc3ccccc32)cc1OC (stereo unspecified)	inhibition [6]: 24%; inhibition [7]: 53%; inhibition (Phosphodiesterase 1 [8]): 14%; inhibition [9]: 37%
1.5		< 1		COc1ccc(S(=O)(=O)N(Cc2cccnc2)S(C)(=O)=O)cc1OCCCCCc1ccccc1	inhibition (Phosphodiesterase 4 [14]): 18%
19		0.17	112	COc1ccc(S(=O)(=O)N(CCC#N)CC2CCCO2)cc1OC (stereo unspecified)	
10	37	< 1		COc1ccc(S(=O)(=O)N(CCC#N)Cc2ccco2)cc1OC	
6		0.12	50	COc1ccc(S(=O)(=O)N(Cc2cccnc2)S(C)(=O)=O)cc1OC	
10		< 1		COC(=O)CN(Cc1ccco1)S(=O)(=O)c1ccc(OC)c(OC)c1	inhibition (Phosphodiesterase 4 [16]): 23%
100		< 1		COc1ccc(S(=O)(=O)NC2CCCC2)cc1OC	inhibition (Phosphodiesterase 4 [16]): 19%
7.8	5	< 0.7		COc1ccc(S(=O)(=O)N(Cc2ccccc2)Cc2ccccn2)cc1OC	
2		0.44	4.5	COc1ccc(S(=O)(=O)N(Cc2cccnc2)S(C)(=O)=O)cc1OC1CCCC1	
4.3	18	< 0.43		COc1ccc(S(=O)(=O)N2CCc3ccccc32)cc1OC	
	14			COc1ccc(S(=O)(=O)n2c(=O)cc(-c3ccccc3)c3ccccc32)cc1OC	IC50 (Phosphodiesterase 4 [13]): 0.5 µM
	36	> 1		COc1ccc(S(=O)(=O)N(CC#N)Cc2ccco2)cc1OC	inhibition (Phosphodiesterase 4 [5]): 30%
